Measurements reported in PMC9648375, “Identification of the first-in-class dual inhibitors of human DNA topoisomerase IIα and indoleamine-2,3-dioxygenase 1 (IDO 1) with strong anticancer properties” (Journal of Enzyme Inhibition and Medicinal Chemistry, 2022).

Columns and labels:
[1] = test system: panel of cancer cell lines; experiment: BrdU assay, whole panel; type: cell-based, human; details: cell line not named, highest value
Protocol: Since the inhibition of human DNA topoisomerase II should result in decreased proliferation of cancer cells, compounds 1-3 were tested using BrdU assay against a panel of cancer cell lines, including MCF-7 (estrogen-dependent human breast cancer cells), MDA-MB-231 (estrogen-independent human breast cancer cells), SCC-25 (squamous cell carcinoma of the tongue), FaDu (squamous cell carcinoma of the pharynx), A549 (human lung carcinoma), AGS (human gastric adenocarcinoma), LS-180, HT-29 (colon cancer cell lines), T98G (glioblastoma cells), and A375 (melanoma cells). Human normal skin fibroblasts (CRL-2072) were also used as a reference cell line. The BrdU assay allows quantification of cell proliferation since it measures incorporation of thymidine analogue (BrdU) during DNA replication. […] However, although the antiproliferative effect caused by 3 was mostly weaker (except for A549 and A375) than observed for 1, but the former compound was also characterised by lower toxicity against human normal cells. It results in selectivity index approaching 125 and 57, when it comes to lung cancer (A549) and melanoma cells (A375), respectively. […]

[2] = target: T1, human DNA topoisomerase IIα (Homo sapiens, UniProt P11388); experiment: Stabilisation of covalent DNA-enzyme cleavage complex (Topoisomerase II Drug Screening Kit); type: biochemical; details: 50 µM (Figure S4), linear DNA cleavage intermediate
T1 construct: purchased Inspiralis Ltd, Norwich, UK
T1 sequence (P11388 whole entry): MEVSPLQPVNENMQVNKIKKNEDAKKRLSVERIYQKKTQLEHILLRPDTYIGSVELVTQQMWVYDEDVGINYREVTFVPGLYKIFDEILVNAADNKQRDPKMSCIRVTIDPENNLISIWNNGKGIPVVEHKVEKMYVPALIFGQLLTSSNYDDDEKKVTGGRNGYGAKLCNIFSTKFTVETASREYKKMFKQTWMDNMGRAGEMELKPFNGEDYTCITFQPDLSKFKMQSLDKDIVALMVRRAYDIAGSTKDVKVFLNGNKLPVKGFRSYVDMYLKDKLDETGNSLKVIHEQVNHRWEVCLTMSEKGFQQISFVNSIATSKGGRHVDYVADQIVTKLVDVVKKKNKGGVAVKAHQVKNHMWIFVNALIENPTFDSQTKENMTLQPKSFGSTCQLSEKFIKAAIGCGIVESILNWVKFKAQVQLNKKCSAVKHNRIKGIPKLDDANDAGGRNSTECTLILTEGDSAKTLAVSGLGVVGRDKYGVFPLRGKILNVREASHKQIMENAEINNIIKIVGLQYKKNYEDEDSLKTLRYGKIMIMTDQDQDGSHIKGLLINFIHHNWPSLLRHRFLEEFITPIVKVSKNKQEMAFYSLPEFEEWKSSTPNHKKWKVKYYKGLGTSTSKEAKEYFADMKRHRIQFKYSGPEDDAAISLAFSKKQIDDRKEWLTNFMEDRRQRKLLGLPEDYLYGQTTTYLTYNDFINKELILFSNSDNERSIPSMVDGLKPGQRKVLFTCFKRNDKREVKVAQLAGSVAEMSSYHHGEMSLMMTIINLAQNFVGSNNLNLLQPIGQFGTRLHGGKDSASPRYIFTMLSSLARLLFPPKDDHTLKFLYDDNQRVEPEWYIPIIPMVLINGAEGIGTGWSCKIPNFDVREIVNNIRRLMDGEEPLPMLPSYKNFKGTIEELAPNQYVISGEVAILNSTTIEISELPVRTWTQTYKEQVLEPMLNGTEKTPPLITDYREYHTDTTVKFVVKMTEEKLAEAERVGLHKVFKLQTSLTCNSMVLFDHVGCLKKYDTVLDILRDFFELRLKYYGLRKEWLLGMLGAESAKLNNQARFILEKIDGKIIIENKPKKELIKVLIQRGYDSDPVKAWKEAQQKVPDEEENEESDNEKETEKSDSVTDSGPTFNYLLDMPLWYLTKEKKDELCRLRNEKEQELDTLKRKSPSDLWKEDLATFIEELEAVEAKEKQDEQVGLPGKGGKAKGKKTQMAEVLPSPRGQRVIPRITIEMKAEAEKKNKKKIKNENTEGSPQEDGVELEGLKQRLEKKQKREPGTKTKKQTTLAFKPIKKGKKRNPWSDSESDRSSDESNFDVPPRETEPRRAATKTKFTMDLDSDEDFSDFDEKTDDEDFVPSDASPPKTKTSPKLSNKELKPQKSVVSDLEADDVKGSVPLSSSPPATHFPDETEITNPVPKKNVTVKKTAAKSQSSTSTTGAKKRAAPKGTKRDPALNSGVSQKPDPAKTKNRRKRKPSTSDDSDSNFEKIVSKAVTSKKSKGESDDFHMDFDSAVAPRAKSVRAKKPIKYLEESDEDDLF
Protocol: As relaxation of supercoiled DNA (scDNA) is one of numerous functions of topoisomerase IIα, so the appearance/disappearance of relaxed DNA bands during agarose gel electrophoresis can be used to identify compounds that inhibit the enzyme.
Determination of the inhibitory effect of compounds 1-10 against human topoisomerase Iiα was performed using Human Topoisomerase II Relaxation Assay (Inspiralis Ltd, Norwich, UK) and Topoisomerase II Drug Screening Kit (TopoGEN Inc., Buena Vista, CO, USA) following the manufacturer’s instructions. Briefly, the increased concentrations of the compounds were mixed with the reaction mixture, incubated according to the protocol and, after reaction termination, the samples were analysed by electrophoresis using 1% agarose gel containing […] of ethidium bromide in Tris-Acetate-EDTA (TAE) buffer. Visualisation of the bands was performed using an enhanced chemiluminescence system (Syngene G:BOX Chemi XT4, Cambridge, UK). For the quantitative determination of topoisomerase II inhibition, images were densitometrically scanned.
topoII + compound 4 (100 µM); lane 7: scDNA + topoII + compound 5 (100 µM); lane 8: scDNA + topoII
+ compound 6 (100µM); lane 9: scDNA + topoII + compound 7 (100 µM); lane 10: scDNA + topoII +
compound 8 (100µM); lane 11: scDNA + topoII + compound 9 (100µM); lane 12: scDNA + topoII +
Figure S4. […] Lane 1: scDNA; […]

Compound | antiproliferative activity, fold higher than that of etoposide [1] | stabilisation of the covalent DNA-enzyme cleavage complex [2]
CC(C)c1cccc(C(C)C)c1NC(=S)NNC(=O)Cc1cccc2ccccc12 [Compound 1, 4-(2,6-Diisopropylphenyl)-1-[(naphth-1-yl)acetyl]thiosemicarbazide] | ≤ 90 fold | –
COc1cc([C@@H]2c3cc4c(cc3[C@@H](O[C@@H]3O[C@@H]5CO[C@@H](C)O[C@H]5[C@H](O)[C@H]3O)[C@H]3COC(=O)[C@H]23)OCO4)cc(OC)c1O [Etoposide, etoposide, reference compound] | – | able to stabilise the covalent DNA-enzyme cleavage complex
